pIC50: −log10 of the molar value.
Tests used:
ENPP1 [1] = target: T1, ENPP1 (Homo sapiens (Human), UniProt P22413); experiment: cGAMP-Glo enzymatic assay (2′3′-cGAMP substrate, AMP-Glo readout); format: biochemical; settings: substrate 2′3′-cGAMP; 25° C. for 60 min; 50 mM Tris pH 8.8
Method: (§1) Example A: Enzymatic Assay
(§2) • 1. Diluted compounds in DMSO by hand for 11 points, 3 folds dilution. Then transferred 0.02 μL compounds to 384 assay plate by ECHO. • 2. Added 2 μL specified concentration of ENPP1 to 384 assay plate. Centrifuged 1000 RPM for 1 min. • 3. Added 2 μL specified concentration of ATP to the assay plate. Centrifuged 1000 RPM for 1 min. • 4. Incubated at 25° C. for 60 min. • 5. Added 4 μL AMP-Glo Reagent to the assay plates. • 6. Centrifuged 1000 RPM for 1 min, incubate at 25° C. for 1 hours. • 7. Added 8 μL Kinase Detection Reagent to the assay plates. • 8. Centrifuged 1000 RPM for 1 min, incubated at 25° C. for 1 hours. The final assay reaction mixture contained a buffer of 50 mM Tris pH 8.8, 250 mM NaCl and 0.1% BSA • 9. Read on Envision for US LUM as RLU. • 10. Analyzed the raw data using the equation (V. Data analysis). cGAMP-Glo Assay: • 1. Diluted compounds in DMSO by hand for 11 points, 3 folds dilution. Then transferred 0.02 μL compounds to 384 assay plate by ECHO. • 2. Added 2 μL specified concentration of ENPP1 to 384 assay plate, centrifuged 1000 RPM for 1 min. • 3. Added 2 μL specified concentration of 2′3′-cGAMP to the assay plate, centrifuged 1000 RPM for 1 min. • 4. Incubated at 25° C. for 60 min. • 5. Added 4 μL AMP-Glo Reagent to the assay plates. • 6. Centrifuged 1000 RPM for 1 min, incubated at 25° C. for 1 hours. • 7. Added 8 μL Kinase Detection Reagent to the assay plates. • 8. Centrifuged 1000 RPM for 1 min, incubate at 25° C. for 1 hours. The final assay reaction mixture contained a buffer of 50 mM Tris pH 8.8, 250 mM NaCl and 0.1% BSA • 9. Read on Envision for US LUM as RLU. • 10. Analyzed the raw data using the equation (V. Data analysis).

ENPP1 [2] = target: T1, ENPP1; experiment: ATP-Glo enzymatic assay (ATP substrate, AMP-Glo readout); format: biochemical; settings: 25° C. for 60 min, 50 mM Tris pH 8.8
Method: as §1, §2

T1 sequence (P22413 whole entry, species assumed): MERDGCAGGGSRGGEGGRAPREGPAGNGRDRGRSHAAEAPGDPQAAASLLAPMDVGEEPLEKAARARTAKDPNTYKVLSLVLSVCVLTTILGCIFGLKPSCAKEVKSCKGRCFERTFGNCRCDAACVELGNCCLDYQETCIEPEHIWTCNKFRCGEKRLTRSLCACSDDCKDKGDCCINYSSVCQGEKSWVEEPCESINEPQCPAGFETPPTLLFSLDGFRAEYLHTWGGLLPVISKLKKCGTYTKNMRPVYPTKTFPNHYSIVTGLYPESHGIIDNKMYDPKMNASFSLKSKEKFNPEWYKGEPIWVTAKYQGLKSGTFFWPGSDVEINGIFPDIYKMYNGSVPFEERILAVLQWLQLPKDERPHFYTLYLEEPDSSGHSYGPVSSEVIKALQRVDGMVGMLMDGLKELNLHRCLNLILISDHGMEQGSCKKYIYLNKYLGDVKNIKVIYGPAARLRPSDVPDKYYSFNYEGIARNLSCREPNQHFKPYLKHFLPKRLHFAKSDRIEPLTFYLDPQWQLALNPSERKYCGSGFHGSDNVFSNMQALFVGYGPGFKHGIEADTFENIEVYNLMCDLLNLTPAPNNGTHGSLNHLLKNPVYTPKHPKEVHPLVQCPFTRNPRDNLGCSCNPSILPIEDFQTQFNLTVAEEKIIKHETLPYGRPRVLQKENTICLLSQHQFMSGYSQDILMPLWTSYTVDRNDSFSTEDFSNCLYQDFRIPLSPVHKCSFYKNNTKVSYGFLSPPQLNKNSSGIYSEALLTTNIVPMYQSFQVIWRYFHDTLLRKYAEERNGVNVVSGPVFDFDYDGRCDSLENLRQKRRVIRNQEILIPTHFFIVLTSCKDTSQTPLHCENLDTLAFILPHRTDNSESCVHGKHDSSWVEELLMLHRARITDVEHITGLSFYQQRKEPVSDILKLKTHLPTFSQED

Compound | pIC50 (ENPP1 [1]) | pIC50 (ENPP1 [2])
4-((6-cyano-2-methyl-7-phenyl-1H-imidazo[4,5-c]pyridin-1-yl)methyl)benzenesulfonamide [Example 41] | > 9.00 | > 9.00
COc1ncc2c(C)cn(Cc3ccc(NS(N)(=O)=O)cc3)c2c1-c1ccn(C)n1 [Example 1, N-(4-((6-methoxy-3-methyl-7-(1-methyl-1H-pyrazol-3-yl)-1H-pyrrolo[3,2-c]pyridin-1-yl)methyl)phenyl) sulfamide] | 7.00 to 8.00 | 6.00 to 7.00
Cc1ncc2ccn(Cc3ccc(NS(N)(=O)=O)cc3)c2c1-c1ccn(C)n1 [Example 2, N-(4-((6-methyl-7-(1-methyl-1H-pyrazol-3-yl)-1H-pyrrolo[3,2-c]pyridin-1-yl)methyl)phenyl) sulfamide] | 6.00 to 7.00 | < 6.00
COc1ncc2ccn(Cc3ccc(NS(N)(=O)=O)cc3)c2c1-c1ccn(C)n1 [Example 3, N-(4-((6-methoxy-7-(1-methyl-1H-pyrazol-3-yl)-1H-pyrrolo[3,2-c]pyridin-1-yl)methyl)phenyl) sulfamide] | 6.00 to 7.00 | < 6.00
COc1ncc2ccn(Cc3ccc(S(N)(=O)=O)cc3)c2c1-c1ccn(C)n1 [Example 5, 4-((6-methoxy-7-(1-methyl-1H-pyrazol-3-yl)-1H-pyrrolo[3,2-c]pyridin-1-yl)methyl)benzenesulfonamide] | 8.00 to 9.00 | 7.00 to 8.00
COc1ncc2c(C)cn(Cc3ccc(S(N)(=O)=O)cc3)c2c1-c1ccn(C)n1 [Example 6, 4-((6-methoxy-3-methyl-7-(1-methyl-1H-pyrazol-3-yl)-1H-pyrrolo[3,2-c]pyridin-1-yl)methyl)benzenesulfonamide] | 8.00 to 9.00 | 8.00 to 9.00
COc1ncc2ccn(Cc3c(F)cc(S(N)(=O)=O)cc3F)c2c1-c1ccn(C)n1 [Example 7, 3,5-difluoro-4-((6-methoxy-7-(1-methyl-1H-pyrazol-3-yl)-1H-pyrrolo[3,2-c]pyridin-1-yl)methyl)benzenesulfonamide] | 8.00 to 9.00 | 8.00 to 9.00
COc1ncc2ccn(Cc3ccc(S(N)(=O)=O)cc3)c2c1-n1ccc(C)n1 [Example 8, 4-((6-methoxy-7-(3-methyl-1H-pyrazol-1-yl)-1H-pyrrolo[3,2-c]pyridin-1-yl)methyl)benzenesulfonamide] | 7.00 to 8.00 | 7.00 to 8.00
COc1ncc2ccn(Cc3ccc(S(N)(=O)=O)cc3)c2c1-c1cnn(C(F)(F)F)c1 [Example 11, 4-((6-methoxy-7-(1-(trifluoromethyl)-1H-pyrazol-4-yl)-1H-pyrrolo[3,2-c]pyridin-1-yl)methyl)benzenesulfonamide] | 6.00 to 7.00 | 6.00 to 7.00
COc1ncc2c(C)cn(Cc3ccc(S(N)(=O)=O)cc3)c2c1-c1ccc(F)cc1 [Example 12] | 7.00 to 8.00 | 7.00 to 8.00
COc1ncc2c(C)cn(Cc3ccc(S(N)(=O)=O)cc3)c2c1-c1ccccn1 [Example 13, 4-((6-methoxy-3-methyl-7-(pyridin-2-yl)-1H-pyrrolo[3,2-c]pyridin-1-yl)methyl)benzenesulfonamide] | 8.00 to 9.00 | 8.00 to 9.00
Cc1ncc2c(C)cn(Cc3c(F)cc(S(N)(=O)=O)cc3F)c2c1-c1ccn(C)n1 [Example 17, 4-((3,6-dimethyl-7-(1-methyl-1H-pyrazol-3-yl)-1H-pyrrolo[3,2-c]pyridin-1-yl)methyl)-3,5-difluorobenzenesulfonamide] | 8.00 to 9.00 | 8.00 to 9.00
Cc1ncc2c(C)cn(Cc3c(F)cc(S(N)(=O)=O)cc3F)c2c1-c1ccn(C(F)(F)F)n1 [Example 18, 4-((3,6-dimethyl-7-(1-(trifluoromethyl)-1H-pyrazol-3-yl)-1H-pyrrolo[3,2-c]pyridin-1-yl)methyl)-3,5-difluorobenzenesulfonamide] | 7.00 to 8.00 | 6.00 to 7.00
COc1ncc2cnn(Cc3ccc(S(N)(=O)=O)cc3)c2c1-c1ccccc1 [Example 21, 4-((6-methoxy-7-phenyl-1H-pyrazolo[4,3-c]pyridin-1-yl)methyl)benzenesulfonamide] | 8.00 to 9.00 | 7.00 to 8.00
Cc1ncc2nc(C)n(Cc3c(F)cc(S(N)(=O)=O)cc3F)c2c1-c1ccccc1 [Example 26, 4-((2,6-dimethyl-7-phenyl-1H-imidazo[4,5-c]pyridin-1-yl)methyl)-3,5-difluorobenzenesulfonamide] | > 9.00 | > 9.00
Cc1ncc2ncn(Cc3c(F)cc(S(N)(=O)=O)cc3F)c2c1-c1ccccc1 [Example 27, 3,5-difluoro-4-((6-methyl-7-phenyl-1H-imidazo[4,5-c]pyridin-1-yl)methyl)benzene sulfonamide] | > 9.00 | > 9.00
Cc1ccccc1-c1c(C)ncc2ncn(Cc3c(F)cc(S(N)(=O)=O)cc3F)c12 [Example 28, 3,5-difluoro-4-((6-methyl-7-(o-tolyl)-1H-imidazo[4,5-c]pyridin-1-yl)methyl)benzene sulfonamide] | 7.00 to 8.00 | 7.00 to 8.00
Cc1ncc2ncn(Cc3ccc(S(N)(=O)=O)cc3)c2c1-c1ccccc1 [Example 29, 4-((6-methyl-7-phenyl-1H-imidazo[4,5-c]pyridin-1-yl)methyl)benzene sulfonamide] | > 9.00 | > 9.00
Cc1ncc(-c2ccccc2)c2c1ncn2Cc1ccc(S(N)(=O)=O)cc1 [Example 30, 4-((4-methyl-7-phenyl-1H-imidazo[4,5-c]pyridin-1-yl)methyl)benzene sulfonamide] | > 9.00 | > 9.00

Further lines, results first:

pIC50 (ENPP1 [1]) | pIC50 (ENPP1 [2]) | Compound
> 9.00 | 8.00 to 9.00 | COc1ncc2c(C)cn(Cc3c(F)cc(S(N)(=O)=O)cc3F)c2c1-c1ccn(C)n1 [Example 4, 3,5-difluoro-4-((6-methoxy-3-methyl-7-(1-methyl-1H-pyrazol-3-yl)-1H-pyrrolo[3,2-c]pyridin-1-yl)methyl)benzene sulfonamide]
> 9.00 | > 9.00 | COc1ncc2ccn(Cc3ccc(S(N)(=O)=O)cc3)c2c1-c1ccccc1 [Example 9, 4-((6-methoxy-7-phenyl-1H-pyrrolo[3,2-c]pyridin-1-yl)methyl)benzene sulfonamide]
> 9.00 | > 9.00 | COc1ncc2c(C)cn(Cc3ccc(S(N)(=O)=O)cc3)c2c1-c1ccccc1 [Example 10, 4-((6-methoxy-3-methyl-7-phenyl-1H-pyrrolo[3,2-c]pyridin-1-yl)methyl)benzene sulfonamide]
> 9.00 | > 9.00 | Cc1ncc2c(C)cn(Cc3c(F)cc(S(N)(=O)=O)cc3F)c2c1-c1ccccc1 [Example 14, 4-[(3,6-dimethyl-7-phenylpyrrolo[3,2-c]pyridin-1-yl)methyl]-3,5-difluorobenzene-1-sulfonamide]
> 9.00 | > 9.00 | Cc1ncc2ccn(Cc3ccc(S(N)(=O)=O)cc3)c2c1-c1ccccc1 [Example 15, 4-((6-methyl-7-phenyl-1H-pyrrolo[3,2-c]pyridin-1-yl)methyl)benzene sulfonamide]
> 9.00 | > 9.00 | Cc1ncc2c(C)cn(Cc3ccc(S(N)(=O)=O)cc3)c2c1-c1ccccc1 [Example 16, 4-((3,6-dimethyl-7-phenyl-1H-pyrrolo[3,2-c]pyridin-1-yl)methyl)benzene sulfonamide]
> 9.00 | > 9.00 | COc1ncc2c(c1-c1ccccc1)n(Cc1ccc(S(N)(=O)=O)cc1)c(=O)n2C [Example 19, 4-[(6-methoxy-3-methyl-2-oxo-7-phenylimidazo[5,4-c]pyridin-1-yl)methyl]benzene-1-sulfonamide]
> 9.00 | > 9.00 | Cc1ncc2c(c1-c1ccccc1)n(Cc1ccc(S(N)(=O)=O)cc1)c(=O)n2C [Example 20, 4-((3,6-dimethyl-2-oxo-7-phenyl-2,3-dihydro-1H-imidazo[4,5-c]pyridin-1-yl)methyl)benzenesulfonamide]
> 9.00 | > 9.00 | COc1ncc2nc(C)n(Cc3ccc(S(N)(=O)=O)cc3)c2c1-c1ccccc1 [Example 22, 4-((6-methoxy-2-methyl-7-phenyl-1H-imidazo[4,5-c]pyridin-1-yl)methyl)benzenesulfonamide]
> 9.00 | > 9.00 | COc1ncc2ncn(Cc3ccc(S(N)(=O)=O)cc3)c2c1-c1ccccc1 [Example 23, 4-((6-methoxy-7-phenyl-1H-imidazo[4,5-c]pyridin-1-yl)methyl)benzenesulfonamide]
> 9.00 | > 9.00 | COc1ncc2nc(C)n(Cc3c(F)cc(S(N)(=O)=O)cc3F)c2c1-c1ccccc1 [Example 24, 3,5-difluoro-4-((6-methoxy-2-methyl-7-phenyl-1H-imidazo[4,5-c]pyridin-1-yl)methyl)benzenesulfonamide]
> 9.00 | > 9.00 | COc1ncc2nc(C)n(Cc3ccc(S(N)(=O)=O)cc3F)c2c1-c1ccccc1 [Example 25]

Reference: US20250101019A1 (Insilico Medicine IP Limited, priority 2022, published 2025)
